{"source": "patent US6602500B1", "about": "“Paenibacillus polymyxa strain ATCC 202127 for biocontrol of bacteria and fungi” (The Governors of the University of Alberta, priority 1998, dated 2003)", "system": "L. maculans", "assay": "Inhibition of growth of L. maculans by other strains and polymyxins (qualitative)", "type": "cell-based, Leptosphaeria maculans"}
{"substance": "polymyxins", "values": [{"measurement": "inhibitory effect against L. maculans", "result": "ineffective"}]}
